From publication PMC11847324, “A communication hub for phosphoregulation of kinetochore-microtubule attachment” (Current biology : CB, 2024)
No end group written: not given here. *: point of attachment. BODIPYFLEthylmaleimide = Cc1cc(C)n2c1C=C1C=CC(CCC(=O)NCCN3C(=O)CC(*)C3=O)=[N+]1[B-]2(F)F

Experiments:
[1] = tested on: Ndc80c^dwarf Nuf2 F8A P9A; test: Fluorescence polarization direct binding to Ndc80c^dwarf bearing Nuf2 F8A P9A; parameters: species or system S. cerevisiae; conditions: Ndc80c^dwarf Nuf2 F8A P9A relative to wild-type Ndc80c^dwarf; Figure 3D
Ndc80c^dwarf Nuf2 F8A P9A, sequence (P40460 115-335 limits assumed): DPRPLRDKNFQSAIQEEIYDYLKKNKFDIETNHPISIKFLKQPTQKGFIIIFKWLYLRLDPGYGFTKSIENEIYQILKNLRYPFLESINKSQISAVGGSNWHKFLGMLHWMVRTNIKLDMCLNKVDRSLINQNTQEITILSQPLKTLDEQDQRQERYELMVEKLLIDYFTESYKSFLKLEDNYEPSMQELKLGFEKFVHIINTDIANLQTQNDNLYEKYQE
Ndc80c^dwarf Nuf2 F8A P9A, sequence (P33895 1-173 F8A/P9A limits assumed, further chain): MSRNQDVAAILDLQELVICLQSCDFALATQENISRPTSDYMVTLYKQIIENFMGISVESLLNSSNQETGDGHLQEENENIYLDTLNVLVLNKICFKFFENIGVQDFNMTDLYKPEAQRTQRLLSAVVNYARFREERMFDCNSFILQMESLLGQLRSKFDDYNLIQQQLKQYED
Ndc80c^dwarf, sequence (P33895 1-150): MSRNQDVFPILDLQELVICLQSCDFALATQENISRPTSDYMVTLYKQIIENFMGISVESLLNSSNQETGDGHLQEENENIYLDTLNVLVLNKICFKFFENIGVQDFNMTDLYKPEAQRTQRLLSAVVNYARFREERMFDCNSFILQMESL
Ndc80c^dwarf, sequence (P40460 115-310, further chain): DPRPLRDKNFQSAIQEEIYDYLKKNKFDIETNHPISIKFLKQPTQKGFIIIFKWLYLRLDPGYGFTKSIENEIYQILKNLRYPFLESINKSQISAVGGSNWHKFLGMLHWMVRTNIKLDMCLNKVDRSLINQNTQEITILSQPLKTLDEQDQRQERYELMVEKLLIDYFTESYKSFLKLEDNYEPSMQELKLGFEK
Procedure: (§1) Figure 3. Fluorescence polarization measurements of Ndc80c^dwarf binding peptides from the N-terminal extensions of Mps1 and Ipl1. (A) Polarization of fluorescence from 20 nM Bodipy-FL Mps1(137–171) (Mps1 residues 137–171 plus a C-terminal cysteine modified with Bodipy-FL -- see Methods) and Bodipy-FL Ipl1 (26–39;45–59) as a function of Ndc80c^dwarf concentration. (B) Competition binding experiment: unlabeled competitor peptides (see figure annotation) were added in twofold serial dilutions to Bodipy-FL Mps1(137–171) and Ndc80c^dwarf at final concentrations of 20 nM and 500 nM respectively. Loss of polarization indicates displacement of bound Bodipy-FL Mps1(137–171) by the competitor. (C) As in (B), with competitor Mps1(137–171) peptides containing mutations that reduce affinity for Ndc80c[40]. (D) Polarization of fluorescence from 20 nM Bodipy-FL Mps1(137–171) as a function of the concentration of Ndc80c^dwarf bearing mutations in Nuf2 that interfere with its Mps1 interaction in cells. […] For the Ipl1 peptide, the second copy of the motif, not used for the fluorescence polarization experiments, is shown in the bottom line.
(§2) We also determined the binding of the Mps1 peptide with two Ndc80c^dwarf constructs bearing mutations characterized in the other accompanying paper -- N128A and F8A P9A[48]. […]

[2] = tested on: Ndc80c^dwarf Nuf2 N128A; test: Fluorescence polarization direct binding to Ndc80c^dwarf bearing Nuf2 N128A; parameters: species or system S. cerevisiae; conditions: Ndc80c^dwarf Nuf2 N128A relative to wild-type Ndc80c^dwarf; Figure 3D
Ndc80c^dwarf Nuf2 N128A, sequence (P40460 115-315 limits assumed): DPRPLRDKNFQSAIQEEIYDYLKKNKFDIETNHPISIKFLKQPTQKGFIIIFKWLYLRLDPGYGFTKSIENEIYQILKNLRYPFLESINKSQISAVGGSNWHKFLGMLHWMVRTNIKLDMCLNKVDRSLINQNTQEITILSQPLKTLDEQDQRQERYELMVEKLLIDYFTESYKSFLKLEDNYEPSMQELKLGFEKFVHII
Ndc80c^dwarf Nuf2 N128A, sequence (P33895 1-158 N128A limits assumed, further chain): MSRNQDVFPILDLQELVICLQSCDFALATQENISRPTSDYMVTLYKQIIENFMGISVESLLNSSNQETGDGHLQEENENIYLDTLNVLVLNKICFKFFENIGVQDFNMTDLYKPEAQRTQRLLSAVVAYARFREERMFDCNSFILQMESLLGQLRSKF
Procedure: as §1, §2

[3] = tested on: Ndc80c^dwarf; test: Pulldown of GST-fusions of Mps1 segments by Ndc80c^dwarf immobilized on Ni-NTA agarose; type: binding, S. cerevisiae; conditions: 6-His Ndc80c^dwarf on Ni-NTA agarose, 30 min incubation, SDS-PAGE read-out; Figure 1B lane 12
Source text: The long, N-terminal extension (residues 1–430) of yeast Mps1 has no immediately evident homology with sequences in metazoan Mps1 shown to interact with Ndc80c. […] We examined conservation among the yeast orthologs by iterative searches with the program Jackhmmer[50]. Using the N-terminal 430 residues of S. cerevisiae Mps1 as query, we identified five segments conserved among point-centromere yeasts (Figure 1A). We carried out a set of pulldown experiments, expressing them as GST-fusions and incubating them with the “dwarf” Ndc80c construct (Ndc80c^dwarf)[51] immobilized on Ni-NTA agarose (Figure 1B). In this format, we expected avidity from GST dimerization and multivalent display of Ndc80c to enhance the assay sensitivity. Ndc80c captured only the GST fusion of a peptide containing residues 151–171 (Figure 1B, lane 12), which include the most conserved region with a consensus sequence (151)RRxRRF(I/L/F)(3–4x)RxxxLGPAxR(170)(Figure 1C). Lysine appears occasionally in place of arginine, except for the invariant R at the end of the motif. […]
Figure 1. […] The bar graph above the N-terminal domain represents conservation determined by iterative searches with Jackhmmer[50] and shown as “information content”, defined in ref[68]. […]

| Substance | affinity weaker than for the wild-type protein [1] | affinity weaker than for the wild-type protein [2] | capture of GST fusion by immobilized Ndc80c^dwarf [3] |
| --- | --- | --- | --- |
| Bodipy-FL Mps1(137–171): Mps1 residues 137–171 plus a C-terminal cysteine modified with Bodipy-FL (RQNMKEDITAKYAERRSKRFLISNRTTKLGPAKRAC(BODIPYFLEthylmaleimide)) | about 2 logs | about 2 logs |  |
| GST fusion of a peptide containing residues 151–171: GST-fusion of Mps1 residues 151–171 expressed from pGEX-6P1 (GSGGSGGSGGSGGSERRSKRFLISNRTTKLGPAKR; also: GST fusion, end not given here) |  |  | captured |
